Measured values as given in PubChem BioAssay AID1963826 (Molecular Pharmacology Branch, DTP, NCI, 2024).

Tested on: 926638-142-R-J1-PDC complex spheroid viability
Assay: Anticancer human tumor 926638-142-R-J1-PDC patient-derived endometrial carcinoma cell line growth inhibition [POLQ]
Conditions: for IC50: curve of first compound; for viability, T/C: stronger effect = lower value
In short: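 PDC + HUVEC + MSC complex spheroids; POLQ inhibitors ± partner drugs; top conc. at/near clinical Cmax, else 10 microM (SN-38 1 microM), half-log dilutions; 37 degrees C, 5% CO2.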

[1] = second compound 0.0316 µM, first compound 0.0316 µM
[2] = second compound 0.0316 µM, first compound 0.1 µM
[3] = second compound 0.0316 µM, first compound 0.316 µM
[4] = second compound 0.0316 µM, first compound 1 µM
[5] = second compound 0.1 µM, first compound 0.0316 µM
[6] = second compound 0.1 µM, first compound 0.1 µM
[7] = second compound 0.1 µM, first compound 0.316 µM
[8] = second compound 0.1 µM, first compound 1 µM
[9] = second compound 0.316 µM, first compound 0.0316 µM
[10] = second compound 0.316 µM, first compound 0.1 µM
[11] = second compound 0.316 µM, first compound 0.316 µM
[12] = second compound 0.316 µM, first compound 1 µM
[13] = second compound 1 µM, first compound 0.0316 µM
[14] = second compound 1 µM, first compound 0.1 µM
[15] = second compound 1 µM, first compound 0.316 µM
[16] = second compound 1 µM, first compound 1 µM
[17] = second compound 3.16 µM, first compound 0.0316 µM
[18] = second compound 3.16 µM, first compound 0.1 µM
[19] = second compound 3.16 µM, first compound 0.316 µM
[20] = second compound 3.16 µM, first compound 1 µM
[21] = second compound 10 µM, first compound 0.0316 µM
[22] = second compound 10 µM, first compound 0.1 µM
[23] = second compound 10 µM, first compound 0.316 µM
[24] = second compound 10 µM, first compound 1 µM
[25] = second compound 0.0316 µM, first compound 3.16 µM
[26] = second compound 0.0316 µM, first compound 10 µM
[27] = second compound 0.1 µM, first compound 3.16 µM
[28] = second compound 0.1 µM, first compound 10 µM
[29] = second compound 0.316 µM, first compound 3.16 µM
[30] = second compound 0.316 µM, first compound 10 µM
[31] = second compound 1 µM, first compound 3.16 µM
[32] = second compound 1 µM, first compound 10 µM
[33] = second compound 3.16 µM, first compound 3.16 µM
[34] = second compound 3.16 µM, first compound 10 µM
[35] = second compound 10 µM, first compound 3.16 µM
[36] = second compound 10 µM, first compound 10 µM
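Further: spheroids exposed to drugs for one week before readout.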
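Wherever viability, T/C is given: percent viability relative to DMSO vehicle control wells set as 100%.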

C=CCn1c(=O)c2cnc(Nc3ccc(N4CCN(C)CC4)cc3)nc2n1-c1cccc(C(C)(C)O)n1 + Cc1cccc(N(C)C(=O)C2C(O)CCN2c2nc(C)cc(C(F)(F)F)c2C#N)c1
IC50 (second compound 0.0316 µM): 390 nM
IC50 (second compound 0.1 µM): 714 nM
IC50 (second compound 0.316 µM): 321 nM
IC50 (second compound 1 µM): 627 nM
IC50 (second compound 3.16 µM): 374 nM
IC50 (second compound 10 µM): 276 nM
viability, T/C (second compound 0.0316 µM, first compound 0.00316 µM): 92%
viability, T/C (second compound 0.0316 µM, first compound 0.01 µM): 80.1%
viability, T/C [1]: 90%
viability, T/C [2]: 64.9%
viability, T/C [3]: 55.6%
viability, T/C [4]: 34%
viability, T/C (second compound 0.1 µM, first compound 0.00316 µM): 106%
viability, T/C (second compound 0.1 µM, first compound 0.01 µM): 98.3%
viability, T/C [5]: 88.7%
viability, T/C [6]: 77.2%
viability, T/C [7]: 57.8%
viability, T/C [8]: 46.6%
viability, T/C (second compound 0.316 µM, first compound 0.00316 µM): 102%
viability, T/C (second compound 0.316 µM, first compound 0.01 µM): 94.4%
viability, T/C [9]: 71.6%
viability, T/C [10]: 61.2%
viability, T/C [11]: 54.7%
viability, T/C [12]: 37%
viability, T/C (second compound 1 µM, first compound 0.00316 µM): 109%
viability, T/C (second compound 1 µM, first compound 0.01 µM): 91.5%
viability, T/C [13]: 76.1%
viability, T/C [14]: 81.1%
viability, T/C [15]: 60.8%
viability, T/C [16]: 40.8%
viability, T/C (second compound 3.16 µM, first compound 0.00316 µM): 87.7%
viability, T/C (second compound 3.16 µM, first compound 0.01 µM): 99.6%
viability, T/C [17]: 81.2%
viability, T/C [18]: 78.8%
viability, T/C [19]: 51.1%
viability, T/C [20]: 36.9%
viability, T/C (second compound 10 µM, first compound 0.00316 µM): 79.5%
viability, T/C (second compound 10 µM, first compound 0.01 µM): 78.9%
viability, T/C [21]: 72.8%
viability, T/C [22]: 76.2%
viability, T/C [23]: 46.5%
viability, T/C [24]: 37.7%

CC1COCCN1c1cc(-c2ccnn2C)c2ccnc(-c3ccn[nH]3)c2n1 (stereo unspecified) + Cc1cccc(N(C)C(=O)C2C(O)CCN2c2nc(C)cc(C(F)(F)F)c2C#N)c1
IC50 (second compound 0.0316 µM): 388 nM
IC50 (second compound 0.1 µM): 340 nM
IC50 (second compound 0.316 µM): 298 nM
IC50 (second compound 1 µM): 414 nM
IC50 (second compound 3.16 µM): 433 nM
IC50 (second compound 10 µM): 313 nM
viability, T/C [1]: 94.8%
viability, T/C [2]: 75.6%
viability, T/C [3]: 58%
viability, T/C [4]: 27.5%
viability, T/C [25]: 12.6%
viability, T/C [26]: 8.02%
viability, T/C [5]: 106%
viability, T/C [6]: 81.6%
viability, T/C [7]: 51.1%
viability, T/C [8]: 28%
viability, T/C [27]: 12.6%
viability, T/C [28]: 7.36%
viability, T/C [9]: 106%
viability, T/C [10]: 76.7%
viability, T/C [11]: 52.3%
viability, T/C [12]: 23.1%
viability, T/C [29]: 12.2%
viability, T/C [30]: 10.2%
viability, T/C [13]: 83.7%
viability, T/C [14]: 99.3%
viability, T/C [15]: 56.1%
viability, T/C [16]: 24.1%
viability, T/C [31]: 12.2%
viability, T/C [32]: 8.86%
viability, T/C [17]: 73.2%
viability, T/C [18]: 77.7%
viability, T/C [19]: 53.8%
viability, T/C [20]: 32.8%
viability, T/C [33]: 10.1%
viability, T/C [34]: 6.72%
viability, T/C [21]: 90.7%
viability, T/C [22]: 76.5%
viability, T/C [23]: 50.2%
viability, T/C [24]: 23.3%
viability, T/C [35]: 10.8%
viability, T/C [36]: 7.42%

CC1COCCN1c1cc(C2(S(C)(=N)=O)CC2)nc(-c2ccnc3[nH]ccc23)n1 (stereo unspecified) + Cc1cccc(N(C)C(=O)C2C(O)CCN2c2nc(C)cc(C(F)(F)F)c2C#N)c1
IC50 (second compound 0.0316 µM): 4550 nM
IC50 (second compound 0.1 µM): 5510 nM
IC50 (second compound 0.316 µM): 4700 nM
IC50 (second compound 1 µM): 4960 nM
IC50 (second compound 3.16 µM): 4390 nM
IC50 (second compound 10 µM): 4050 nM
viability, T/C [1]: 117%
viability, T/C [2]: 93.9%
viability, T/C [3]: 93.8%
viability, T/C [4]: 101%
viability, T/C [25]: 59.2%
viability, T/C [26]: 30.1%
viability, T/C [5]: 104%
viability, T/C [6]: 91.2%
viability, T/C [7]: 100%
viability, T/C [8]: 81.2%
viability, T/C [27]: 76.2%
viability, T/C [28]: 25.8%
viability, T/C [9]: 107%
viability, T/C [10]: 90.9%
viability, T/C [11]: 98.6%
viability, T/C [12]: 79.5%
viability, T/C [29]: 60.7%
viability, T/C [30]: 29.7%
viability, T/C [13]: 117%
viability, T/C [14]: 101%
viability, T/C [15]: 96.4%
viability, T/C [16]: 110%
viability, T/C [31]: 60.5%
viability, T/C [32]: 33.6%
viability, T/C [17]: 91.6%
viability, T/C [18]: 117%
viability, T/C [19]: 95.2%
viability, T/C [20]: 103%
viability, T/C [33]: 59%
viability, T/C [34]: 27.4%
viability, T/C [21]: 80.4%
viability, T/C [22]: 112%
viability, T/C [23]: 87.8%
viability, T/C [24]: 89%
viability, T/C [35]: 56.7%
viability, T/C [36]: 25.5%
